Measured values from patent EP2246337A1, “Use of isoxazole derivatives as cyclooxygenase inhibitors” (Universita' degli Studi di Bari, priority 2004, dated 2005).
Like-named read-outs stand apart in the source and are kept apart here. Marks after values point to notes of the source that are not given here.

Legend:
platelet COX-1 = target: T1, platelet COX-1 (Homo sapiens, UniProt P23219); experiment: COX-1 assay in isolated human whole blood allowed to clot (serum TXB2); assay type: cell-based; details: for IC50: isolated human whole blood clotting 1 hour at 37°C, TXB2, means of at least two experiments
T1 construct: 1 ml aliquots of isolated whole blood were immediately transferred into glass test tubes and kept at a temperature of 37°C; endogenous in cells; host or cells: platelets in human whole blood (healthy volunteers / study subjects)
Protocol: 11 healthy volunteers (6 females aged between 25 and 29 years) were enrolled to participate in the study after each having given their written approval.
1 ml aliquots of isolated whole blood were immediately transferred into glass test tubes and kept at a temperature of 37°C for 1 hour. The serum was separated by centrifugation (10 min at 3000 rpm) and kept at -70°C until assayed for thromboxane (TX)B2.
From 4 to 9 different concentrations of each compound were incubated with heparinised isolated whole blood samples in the presence of LPS (10 micrograms/ml) for 24 hours or with isolated whole blood samples allowed to clot at 37°C for 1 hour, in order to examine the concentration-dependence of COX-2 vs. COX-1 inhibition, respectively.
The concentrations of PGE2 and TXB2 were measured by radioimmunological assays (Patrono C. et al.. Low dose aspirin and inhibition of thromboxane B2 production in healthy subjects. Thromb. Res. 1980; 17: 317-27; Ciabattoni G. et al. J Endocrinol Invest 1979; 2:173-182). Isolated plasma and serum samples were diluted in the standard diluent of the assay (0.02M phosphate buffer, pH 7.4) and assayed in a volume of 1.5 ml at a final dilution of 1:50-1:30.000. 4000 d.p.m. of [^3H]-PGE2 or [^3H]-TXB2 were used and specific anti-PGE2 and anti-TXB2 antibody diluted 1:100,000 and 1:120,000, respectively. The least detectable concentration was 1-2 pg/ml for both prostanoids.

monocyte COX-2 = target: T2, monocyte COX-2 (Homo sapiens, UniProt P35354); experiment: COX-2 assay in LPS-stimulated isolated human whole blood (plasma PGE2); assay type: cell-based; details: for IC50: heparinised isolated human whole blood, LPS 10 micrograms/ml, 24 hours, PGE2, means of at least two experiments
T2 construct: isolated peripheral venous blood samples containing 10 IU of sodium heparin were incubated in the laboratory in the presence of LPS; endogenous in cells; host or cells: monocytes in LPS-stimulated heparinised human whole blood
T2 sequence (P35354 18-604): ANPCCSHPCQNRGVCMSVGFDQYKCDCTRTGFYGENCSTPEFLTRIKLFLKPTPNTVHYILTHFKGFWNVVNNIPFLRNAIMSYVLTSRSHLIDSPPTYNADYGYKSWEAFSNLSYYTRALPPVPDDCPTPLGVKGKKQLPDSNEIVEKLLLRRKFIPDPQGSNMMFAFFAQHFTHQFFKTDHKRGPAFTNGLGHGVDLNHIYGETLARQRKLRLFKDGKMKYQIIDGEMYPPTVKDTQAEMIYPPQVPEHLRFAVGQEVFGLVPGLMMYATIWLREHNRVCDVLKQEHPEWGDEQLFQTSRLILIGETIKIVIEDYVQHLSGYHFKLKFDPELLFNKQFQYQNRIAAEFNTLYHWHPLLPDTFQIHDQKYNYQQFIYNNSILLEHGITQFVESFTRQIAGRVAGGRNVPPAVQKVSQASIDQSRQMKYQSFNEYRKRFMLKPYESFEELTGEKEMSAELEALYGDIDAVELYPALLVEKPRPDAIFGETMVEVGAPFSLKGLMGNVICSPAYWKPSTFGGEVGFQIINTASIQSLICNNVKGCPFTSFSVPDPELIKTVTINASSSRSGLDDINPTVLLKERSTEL

[1] = system: biosynthesis of prostacyclin; experiment: Urinary excretion of 2,3-dinor-6-keto-PGF1α (index of systemic prostacyclin biosynthesis in vivo) after rofecoxib; set-up: species or system human; details: for percent change from pretreatment at 25 mg: Homo sapiens, 120 h
Text: (§1) The collection of overnight urine samples was obtained to assess the urinary excretion of 11-dehydro-thromboxane B2 and of 2,3-dinor-6-keto-PGF1α before treatment with the drug and after the last dose of rofecoxib.
(§2) Biochim Biophys Acta 1987;918:293-7. […] J Pharmacol Exp Ther 1995;275:94-100).

COX-2 monocyte activity [2] = target: T3, COX-2 monocyte activity (Homo sapiens, UniProt P35354); details: rofecoxib 25 mg per day for 5 consecutive days, median (range)
Protocol: (§3) Subjects with disturbances of a haemorrhagic nature, allergy to aspirin or to other non-steroidal anti-inflammatory drugs (NSAID) or with a history of gastrointestinal disorders were excluded from the study. The subjects refrained from using aspirin or other non-steroidal anti-inflammatory drugs (NSAID) for at least two weeks prior to the study. The blood samples were taken to determine COX-1 platelet activity and COX-2 monocyte activity before treatment with the drug and 12 hours after the last administration (at 8 a.m. on the sixth day of the study).
(§4) The effects of Rofecoxib on COX-1 platelet activity were assessed (assessing the production of serum TXB2 as described in Patrono et al., Thromb Res 1980;17:317-27) and on COX-2 monocyte activity (measuring the production of PGE2 in whole blood stimulated with LPS, as described in Patrignani et al., J Pharmacol Exp Ther 1994;271:1705-12).

COX-1 platelet activity = target: T4, COX-1 platelet activity (Homo sapiens, UniProt P23219); experiment: Ex vivo platelet COX-1 activity (serum TXB2) in subjects treated with rofecoxib; details: median (range); for Serum Thromboxane B2: rofecoxib 25 mg per day for 5 consecutive days; for COX-1 platelet activity, % of variation vs pretreatment values: 25 mg per day for 5 consecutive days
T4 construct: 1 ml aliquots of isolated whole blood were immediately transferred into glass test tubes and kept at a temperature of 37°C; endogenous in cells; host or cells: platelets in human whole blood (healthy volunteers / study subjects)
Protocol: as §3, §4

COX-2 monocyte activity [3] = target: T3, COX-2 monocyte activity; experiment: in vivo
Protocol: as §3, §4

[4] = system: biosynthesis of Thromboxane A2; experiment: Urinary excretion of 11-dehydro-thromboxane B2 (index of systemic thromboxane A2 biosynthesis in vivo) after rofecoxib; set-up: species or system human; details: median (range); for 11-dehydro-thromboxane B2: rofecoxib 25 mg per day for 5 consecutive days, overnight urine; for urinary excretion of 11-dehydro-TXB2, % of pre-drug values: 25 mg per day for 5 days
Text: as §1, §2

T1 sequence (P23219 24-599): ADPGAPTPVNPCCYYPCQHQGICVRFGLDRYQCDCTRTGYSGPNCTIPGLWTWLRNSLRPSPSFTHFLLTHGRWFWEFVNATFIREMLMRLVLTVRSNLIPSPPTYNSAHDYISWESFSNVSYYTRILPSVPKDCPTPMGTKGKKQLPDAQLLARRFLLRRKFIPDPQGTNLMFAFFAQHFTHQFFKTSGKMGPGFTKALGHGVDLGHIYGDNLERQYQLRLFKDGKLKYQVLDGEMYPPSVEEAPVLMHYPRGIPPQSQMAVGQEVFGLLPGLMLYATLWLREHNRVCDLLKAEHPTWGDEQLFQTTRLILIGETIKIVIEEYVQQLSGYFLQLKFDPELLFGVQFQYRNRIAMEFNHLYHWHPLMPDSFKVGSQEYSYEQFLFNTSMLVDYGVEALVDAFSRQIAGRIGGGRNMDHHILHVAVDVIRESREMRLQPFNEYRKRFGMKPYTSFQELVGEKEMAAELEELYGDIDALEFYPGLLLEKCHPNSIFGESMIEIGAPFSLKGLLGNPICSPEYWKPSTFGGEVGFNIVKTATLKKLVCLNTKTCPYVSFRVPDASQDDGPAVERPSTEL
T4 sequence (P23219 24-599): as above

With `Cc1onc(-c2ccccc2)c1-c1ccccc1` [2a (P10), 3,4-Diphenyl-5-methylisoxazole] the “COX-1 inhibition (result in words)” value (platelet COX-1) was “excellent COX-1 inhibitors”, the IC50 (platelet COX-1) was 0.09 µM and the IC50 (monocyte COX-2) was 2.49 µM.
With `Cc1onc(-c2ccc(Cl)o2)c1-c1ccccc1` [2c (P6), 3-(5-Chloro-2-furyl)-4-phenyl-5-methylisoxazole] the “COX-1 inhibition (result in words)” value (platelet COX-1) was “excellent COX-1 inhibitors”, the “suppression of platelet COX-1 activity” value (platelet COX-1; at concentrations that do not affect monocyte COX-2 activity, concentration-response curves) was greater than 90% and the IC50 (platelet COX-1) was 0.5 µM. The “effect on monocyte COX-2 activity” value (monocyte COX-2; at concentrations giving virtually complete suppression of platelet COX-1 activity) was “do not affect monocyte COX-2 activity”.
In the case of `CCc1onc(-c2ccccc2)c1-c1ccccc1` [2g (P9), 3,4-Diphenyl-5-ethylisoxazole], the “COX-1 inhibition (result in words)” value (platelet COX-1) is reported as “excellent COX-1 inhibitors”, the IC50 (platelet COX-1) is reported as 0.05 µM and the IC50 (monocyte COX-2) is reported as 1.49 µM.
For `CS(=O)(=O)c1ccc(C2=C(c3ccccc3)C(=O)OC2)cc1` [Rofecoxib], the “2,3 dinor-6 keto-prostaglandin F1α” value ([1]; "Wild-type" TLR4 subjects, rofecoxib 25 mg per day for 5 consecutive days, overnight urine, median (range)) was 56.5(38-84)^* pg/mg creatinine, the “2,3 dinor-6-keto-prostaglandin F1α” value ([1]; Carriers of TLR4 Polymorphisms, rofecoxib 25 mg per day for 5 consecutive days, overnight urine, median (range)) was 50 (28-93)^* pg/mg creatinine and the percent change from pretreatment at 25 mg ([1]; read-out: inhibition of the urinary excretion of 2,3-dinor-6-keto PGF1α, "wild-type" subjects (second value of 'respectively'), 25 mg per day for 5 days, median (range)) was -61%. The percent change from pretreatment at 25 mg ([1]; read-out: inhibition of the urinary excretion of 2,3-dinor-6-keto PGF1α, carriers of TLR4 polymorphisms (first value of 'respectively'), 25 mg per day for 5 days, median (range)) was -64%, the inhibition of prostacyclin ([1]; similar in the two groups of patients (carriers of TLR4 polymorphisms and wild-type)) was “about 60%” and the “Prostaglandin E2 induced by lipopolysaccharide” value (COX-2 monocyte activity [2]; "Wild-type" TLR4 subjects) was 2.3 (0.3-4.2) ^** ng/ml. The “Prostaglandin E2 induced by lipopolysaccharide” value (COX-2 monocyte activity [2]; Carriers of TLR4 Polymorphisms) was 5.3 (1.9-11)^** ng/ml, the “Serum Thromboxane B2” value (COX-1 platelet activity; "Wild-type" TLR4 subjects) was 233.5 (178-391) ng/ml and the “Serum Thromboxane B2” value (COX-1 platelet activity; Carriers of TLR4 Polymorphisms) was 225 (94-728) ng/ml. For the same compound, the “COX-1 platelet activity, % of variation vs pretreatment values” (COX-1 platelet activity; carriers of TLR4 polymorphism) was -11(from 0 to -57) %, the “COX-1 platelet activity, % of variation vs pretreatment values” (COX-1 platelet activity; non carriers of TLR4 polymorphism) was -10(from 0 to -10) % and the inhibition at 25 mg (COX-2 monocyte activity [3]; read-out: monocyte COX-2 activity ex vivo, % inhibition, carriers of TLR4 polymorphism, 25 mg per day for 5 consecutive days, median (range)) was -94%. For the same compound, the inhibition at 25 mg (COX-2 monocyte activity [3]; read-out: monocyte COX-2 activity ex vivo, % inhibition, non carriers of TLR4 polymorphism, 25 mg per day for 5 consecutive days, median (range)) was -85%, the “11-dehydro-thromboxane B2” value ([4]; "Wild-type" TLR4 subjects) was 345 (155-595.6) pg/mg creatinine and the “urinary excretion of 11-dehydro-TXB2, % of pre-drug values” ([4]; "wild-type" subjects) was 71 (67-84) %. The “11-dehydro-thromboxane B2” value ([4]; Carriers of TLR4 Polymorphisms) was 329 (158-587)^* pg/mg creatinine and the “urinary excretion of 11-dehydro-TXB2, % of pre-drug values” ([4]; carriers of TLR4 polymorphisms) was 174 (136-354) %.
